Data taken from ChEMBL document CHEMBL5154876, “Design, synthesis and promising anti-tumor efficacy of novel imidazo[1,2-a]pyridine derivatives as potent autotaxin allosteric inhibitors” (Eur J Med Chem, 2022).

Experiments:
RAW264.7 [1] = experiment: Induction of apoptosis in mouse RAW264.7 cells assessed as apoptotic cells by measuring blue fluorescence after 48 hrs by Hoechst33342 staining based fluorescence microscopy; type: functional, cell-based; conditions: dose 0.1-1 µM, DDE = dose-dependent effect
MCF7 = experiment: Cytotoxicity against human MCF-7 cells assessed as inhibition of cell growth incubated for 72 hrs by MTT assay; type: functional, cell-based; conditions: MCF7, 72 h
RAW264.7 [2] = experiment: Antimigratory activity against mouse RAW264.7 cells assessed as decrease in cell migration rate measured upto 72 hrs by scratch wound healing assay; type: functional, cell-based; conditions: DDE = dose-dependent effect
RAW264.7 [3] = experiment: Induction of apoptosis in mouse RAW264.7 cells assessed as early apoptotic cells at 0.1 uM after 48 hrs by Annexin V-FITC/PI based flow cytometric analysis (RVB=5.57%); type: functional
RAW264.7 [4] = experiment: Cytotoxicity against mouse RAW264.7 cells assessed as inhibition of cell growth incubated for 72 hrs by MTT assay; type: functional, cell-based; conditions: RAW264.7, 72 h
RAW264.7 [5] = experiment: Induction of cell cycle arrest in mouse RAW264.7 cells assessed as accumulation of cells in G2 phase at 1 uM incubated for 24 hrs by PI/RNase staining based flow cytometric analysis (RVB = 10.90%); type: functional
RAW264.7 [6] = experiment: Induction of cell cycle arrest in mouse RAW264.7 cells assessed as accumulation of cells in G2 phase at 0.1 uM incubated for 24 hrs by PI/RNase staining based flow cytometric analysis (RVB = 10.90%); type: functional
RAW264.7 [7] = experiment: Induction of apoptosis in mouse RAW264.7 cells assessed as early apoptotic cells at 1 uM after 48 hrs by Annexin V-FITC/PI based flow cytometric analysis (RVB=5.57%); type: functional
RAW264.7 [8] = experiment: Induction of cell cycle arrest in mouse RAW264.7 cells assessed as accumulation of cells in G1 phase at 1 uM incubated for 24 hrs by PI/RNase staining based flow cytometric analysis (RVB = 55.06%); type: functional
A549 = experiment: Cytotoxicity against human A549 cells assessed as inhibition of cell growth incubated for 72 hrs by MTT assay; type: functional, cell-based; conditions: A549, 72 h
RAW264.7 [9] = experiment: Induction of apoptosis in mouse RAW264.7 cells assessed as late apoptotic cells at 0.5 uM after 48 hrs by Annexin V-FITC/PI based flow cytometric analysis (RVB=0.098%); type: functional

CCc1nc2c(C)cc(-c3ccc(CN4CCN(CCO)CC4)cc3)cn2c1NC(=O)OCc1cc(Cl)cc(Cl)c1
Activity (RAW264.7 [1]): Dde | IC50 (MCF7): 3.87 µM | Activity (RAW264.7 [2]): Dde | Activity (RAW264.7 [3]): 6.04% | IC50 (RAW264.7 [4]): 0.63 µM | Activity (RAW264.7 [5]): 90.16% | Activity (RAW264.7 [6]): 59.56% | Activity (RAW264.7 [7]): 8.43% | Activity (RAW264.7 [8]): 7.22% | IC50 (A549): 6.59 µM | Activity (RAW264.7 [9]): 0.95%
